Legend:
[1] = system: chick embryo vitelline capillaries; test: chick embryo vitelline capillary regression assay; type: in vivo; design: key to vitelline capillary regression: +: Vascular reactivity; 0: No vascular reactivity; +/-: Equivocal reactivity; settings: for vitelline capillary regression: 60 minutes
Method in brief: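 Compounds applied to 3- to 5-day chick embryos in 0.1 ml of 15% Ficol 400 in PBS. Regression of vitelline capillaries, seen as pinching-off of capillary loops into enclosed sacs, was scored visually after 60 minutes.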

rabbit NHE1 = test: internal pH recovery, PS120 fibroblasts transfected with rabbit NHE1 (BCECF-AM); type: cell-based; settings: 5 μg/ml; acid-preloaded by 40 mM NH4Cl
Method: (§1) PS120 fibroblasts transfected with rabbit or human NHE1 were grown as described above.

Murine B16 melanoma = test: growth inhibition in vitro; type: cell-based; settings: except at very high concentrations
Description: As set forth in Table 7 below, all malignant tumors evaluated in tissue culture, endothelial cells and vascular smooth muscle cells were sensitive to inhibition. Thus, compound 1436 has application in the control of growth factor dependent proliferation of many types of tissue.

rabbit NHE3 = rabbit NHE3 (Oryctolagus cuniculus, UniProt P26432); settings: 5 μg/ml
rabbit NHE3, sequence (P26432 30-832): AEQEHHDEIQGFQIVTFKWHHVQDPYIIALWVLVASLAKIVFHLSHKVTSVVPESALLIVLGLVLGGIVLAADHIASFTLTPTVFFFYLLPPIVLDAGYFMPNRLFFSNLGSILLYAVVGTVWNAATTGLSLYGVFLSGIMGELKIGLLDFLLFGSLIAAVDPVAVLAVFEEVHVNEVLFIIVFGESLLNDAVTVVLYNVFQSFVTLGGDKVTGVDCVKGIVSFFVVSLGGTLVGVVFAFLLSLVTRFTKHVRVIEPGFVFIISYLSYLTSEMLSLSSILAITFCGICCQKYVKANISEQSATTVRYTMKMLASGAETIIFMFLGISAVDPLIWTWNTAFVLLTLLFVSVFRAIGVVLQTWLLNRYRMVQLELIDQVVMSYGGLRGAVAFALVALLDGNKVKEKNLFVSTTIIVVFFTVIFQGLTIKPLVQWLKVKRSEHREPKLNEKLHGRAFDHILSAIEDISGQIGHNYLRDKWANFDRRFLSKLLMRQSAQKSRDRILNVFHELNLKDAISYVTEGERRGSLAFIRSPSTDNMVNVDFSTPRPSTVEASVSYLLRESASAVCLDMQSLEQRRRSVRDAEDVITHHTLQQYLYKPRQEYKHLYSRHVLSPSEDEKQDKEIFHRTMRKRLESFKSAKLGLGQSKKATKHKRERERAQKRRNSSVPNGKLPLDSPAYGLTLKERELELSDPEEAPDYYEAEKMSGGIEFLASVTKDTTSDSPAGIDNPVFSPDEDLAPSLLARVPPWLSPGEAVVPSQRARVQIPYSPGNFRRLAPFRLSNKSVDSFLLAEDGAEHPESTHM
Method: Internal pH was measured either following acid loading or in the absence of an acid-loading challenge, with the results shown in FIGS. 1A and 1B.
Specifically, PS120 fibroblasts transfected with rabbit NHE3 were grown in supplemented Dulbecco's-modified Eagle's medium as described by Levine et al., J. Biol. Chem. 268, 1993, 25527-25535. […] For cells not acid-preloaded, the actual internal pH value was monitored as a function of time following addition of squalamine, with the results depicted in FIG. 1B.
PS120 fibroblasts transfected with rabbit NHE3 were grown and acid preloaded by exposure to 40 mM NH4 Cl as described above in conjunction with FIGS. 1A and 1B. Internal cellular pH changes expressed as the rate of pH recovery as a function of restored extracellular sodium ion concentration following exposure to 10 μg/ml of the compound were assayed with the fluorescent dye BCECF-AM as described above.

[2] = system: bacteria, fungi and protozoa; settings: cited from earlier work
[3] = system: human coronary artery smooth muscle; test: proliferation of human coronary artery smooth muscle in vitro; type: cell-based; settings: FIG. 15
Description: Aminosterols of the invention may also have utility in inhibiting the growth factor mediated proliferation of smooth muscle within the artery. Following coronary angioplasty, reocclusion commonly occurs, secondary to reparative proliferation of the vascular smooth muscle within the wall of the surgically manipulated blood vessel. This process generally takes place over the course of 7-10 days. To evaluate whether an agent could prevent the growth factor mediated proliferation of smooth muscle within the artery, compound 1436 was evaluated in vitro for its effect on the proliferation of human coronary artery smooth muscle. Results for compound 1436 are shown in FIG. 13, and those for squalamine are shown in FIG. 14, with FIG. 15 being a composite logarithmic plot.

[4] = system: human umbilical venous endothelial cells; test: LPS/TNF-α-induced neutrophil adherence to human umbilical venous endothelial cells; settings: 10, 1.0 or 0.1 μg; three different subjects
Method: In these experiments, approximately 2×10^5 human umbilical venous cells (passage 2-6) were plated per well. The cells were grown in serum-free media overnight. For induction, either TNF-α (40 ng/ml) was added to endothelial cells for 6 hours prior to adding neutrophils or LPS (100 ng/ml) was added for 4-6 hours. […] After activation of the endothelial cells, approximately 50×10^6 neutrophils were added per well. The plates were gently rocked for 30 minutes at room temperature, followed by removal of the media and washing in serum-free media three times and then photographing of each well. […] A monoclonal Ab to ICAM-1 was a positive control.

human NHE1 = test: internal pH recovery, PS120 fibroblasts transfected with human NHE1 (BCECF-AM); type: cell-based; settings: 5 μg/ml; acid-preloaded by 40 mM NH4Cl
Method: as §1

human melanoma 1205Lu = test: growth of human melanoma 1205Lu in immunocompromised RAG-1 mice; type: in vivo, RAG-1 mice (human tumor)
Description: As apparent from FIG. 5, melanoma 1205Lu develops aggressively in RAG-1 mice after implantation.

[5] = system: human epithelial cell line MCF 10A; test: growth inhibition of human epithelial cells in vitro; type: cell-based; settings: 10 μg/ml
[6] = system: PHA-stimulated human lymphocytes; test: inhibition of mitogen (PHA)-stimulated growth of human T-cells; type: cell-based
Description: Results are tabulated below.

[7] = system: VX2 carcinoma implanted into the rabbit cornea; test: tumor-induced (VX2 carcinoma) corneal neovascularization in rabbits; type: in vivo; settings: ELVAX 40 P pellet
Description: The implantation of VX2 carcinoma into the rabbit cornea results in the induction of new blood vessels within several days (Tamargo et al., Cancer Research 51, 1991, 672-675). It is believed that this carcinoma secretes growth factors that stimulate new blood-vessel growth. Thus, this model is indicative in vivo evidence of therapeutic utility in the treatment of pathological disorders of vascularization, including the metastatic spread of tumors, diabetic retinopathy, macular degeneration, and rheumatoid arthritis.
This experiment followed the published protocol--tumor was implanted adjacent to a polymer containing a concentration of the agent to be evaluated. The polymer releases the agent slowly in the immediate neighborhood of the tumor, providing sustained high local concentrations of the agent. In this experiment, squalamine introduced into a pellet of ELVAX 40 P (DuPont, Wilmington, Del.) inhibited new blood vessel formation by about 60% at days 7 and 14, and by about 25% at day 21.

[8] = system: chick chorioallantoic membrane; test: chorioallantoic membrane (CAM) model, capillary growth; type: in vivo
Description: The growing capillaries within the chorioallantoic membrane model (CAM model) have been used as a system in which to evaluate the effect of agents on their potential to inhibit new vessel growth. Neovascularization occurs most aggressively over the first week of embryonic development. Thereafter capillary growth is characterized by principally "elongation" rather than "de novo" formation.
In the standard assay, agents are applied locally to a region of the embryo over which neovascularization will occur. Agents are assessed by their ability to inhibit this process, as evaluated by visual examination about 7 days after application. […] The assay utilized is described in detail in Auerbach et al., Pharm. Ther. 51, 1991, 1-11.

[9] = system: human foreskin fibroblasts; test: growth inhibition of human foreskin fibroblasts in vitro; type: cell-based; settings: 10 μg/ml
[10] = system: bovine pulmonary endothelial cells; test: growth inhibition of bovine pulmonary endothelial cells in vitro; type: cell-based; settings: 1 μg/ml

CC(C)[C@@H](CC[C@@H](C)[C@H]1CC[C@H]2[C@@H]3[C@H](O)C[C@H]4C[C@@H](NCCCNCCCCN)CC[C@]4(C)[C@H]3CC[C@]12C)OS(=O)(=O)O [Squalamine, squalamine]
vitelline capillary regression ([1]; 0.001 μg applied): 0 | vitelline capillary regression ([1]; 0.01 μg applied): + | vitelline capillary regression ([1]; 0.1 μg applied): + | vitelline capillary regression ([1]; 1 μg applied): + | vitelline capillary regression ([1]; 10 μg applied): + | hemolysis ([1]; 0.1 ml in 15% Ficol in PBS): absence of hemolysis | hemorrhage ([1]; 0.1 ml in 15% Ficol in PBS): No hemorrhage was seen | lag period before vessel constriction ([1]; 0.1 ml in 15% Ficol in PBS): around 15 minutes | activity in vitelline capillary regression assay (in words) ([1]; in vivo): especially active | effect on chick embryo vitelline capillaries (in words) ([1]; in vivo): found to disrupt vitelline capillaries in 3- to 5-day chick embryos | inhibition of rabbit NHE1 (rabbit NHE1): no inhibitory activity | cytostatic activity against B16 in culture (Murine B16 melanoma): minimal cytostatic activity against B16 in culture | inhibition of NHE3 (rabbit NHE3; acid-preloaded by 40 mM NH4Cl): inhibited NHE3 with respect to proton concentration at both Km and Vmax levels | resting pH (rabbit NHE3; cells not acid-preloaded): the resting pH of these cells was also inhibited | antibiotic activity [2]: broad-spectrum antibiotic, killing bacteria, fungi and protozoa | suppression of growth (in words) [3]: suppress in vitro the growth of human coronary artery smooth muscle | inhibition of neutrophil adherence [4]: no inhibition | inhibition of human NHE1 (human NHE1): no inhibitory activity | suppression of melanoma 1205Lu growth (human melanoma 1205Lu; 10, 20, 40 mg/kg/d, after tumors reached about 0.1 ml): found to suppress the growth of melanoma 1205Lu in RAG-1 mice in a dose-dependent fashion | tumor growth after cessation of treatment (human melanoma 1205Lu; in vivo): tumor growth continued at a rate similar to untreated controls | growth of epithelial line [5]: no effect on the growth | inhibition of blast transformation (in words) ([6]; 10 μg/ml): Some effect was observed | inhibition at 1 µg/mL ([6]; Homo sapiens, Lymphocyte, 1 μg/ml, read-out: inhibition of PHA-stimulated human lymphocytes (% control)): 3% | inhibition at 5 µg/mL ([6]; Homo sapiens, Lymphocyte, 5 μg/ml, read-out: inhibition of PHA-stimulated human lymphocytes (% control)): 8% | inhibition at 10 µg/mL ([6]; Homo sapiens, Lymphocyte, 10 μg/ml, read-out: inhibition of PHA-stimulated human lymphocytes (% control)): 10% | inhibition of new blood vessel formation ([7]; day 7): about 60% | inhibition of new blood vessel formation ([7]; day 14): about 60% | amount resulting in inhibition of CAM vessel neovascularization ([8]; 3-day CAM): ≤ 0.65 µg | inhibitory effect on 13-day old chick ([8]; ten times 0.65 μg): no inhibitory effect | growth of fibroblast line [9]: no effect on the growth | growth of bovine pulmonary artery endothelial cells (BPE) [10]: inhibited the growth
